Experimental data taken from ChEMBL document CHEMBL1201862, “PubChem BioAssay data set” (2004).
The source made the active and inactive calls.

What was measured:
[1] = HepG2 cell cytotoxicity, dose response, cytotoxicity control, ATP luminescence, cherry-pick, set 6 (AID 1053125); type: functional, cell-based
[2] = cells; settings: A549
[3] = target: T1, Ubiquitin-conjugating enzyme E2 N (Homo sapiens, UniProt P61088); type: functional
T1 sequence (P61088 whole entry): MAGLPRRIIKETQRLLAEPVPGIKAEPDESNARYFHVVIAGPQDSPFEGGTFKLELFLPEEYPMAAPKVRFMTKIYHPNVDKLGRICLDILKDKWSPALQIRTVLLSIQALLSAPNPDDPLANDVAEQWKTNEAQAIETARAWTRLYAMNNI

[4] = cells; settings: HEK293
[5] = target: T1, Ubiquitin-conjugating enzyme E2 N; type: functional; remark: listed apart in the source
[6] = target: T2, Bcl-2-related protein A1 (Mus musculus, UniProt Q07440); type: functional;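 note: confirmatory dose–response counterscreen on Bfl-1, used to check hits from a UBC13 polyubiquitin inhibitor campaign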
T2 sequence (Q07440 whole entry): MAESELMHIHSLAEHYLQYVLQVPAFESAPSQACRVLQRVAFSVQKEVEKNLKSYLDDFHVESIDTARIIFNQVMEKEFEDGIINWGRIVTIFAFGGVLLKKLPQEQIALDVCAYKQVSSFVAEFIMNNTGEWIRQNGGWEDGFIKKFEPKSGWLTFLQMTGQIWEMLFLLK

[7] = target: T3, G-protein coupled receptor 35 (Homo sapiens, UniProt Q9HC97); assay: SAR analysis of Antagonists of the GPR35 Receptor using an Image-Based Assay - Set 6. [Related pubchem assays (depositor defined):AID2013, AID2026]; type: functional
T3 sequence (Q9HC97 whole entry): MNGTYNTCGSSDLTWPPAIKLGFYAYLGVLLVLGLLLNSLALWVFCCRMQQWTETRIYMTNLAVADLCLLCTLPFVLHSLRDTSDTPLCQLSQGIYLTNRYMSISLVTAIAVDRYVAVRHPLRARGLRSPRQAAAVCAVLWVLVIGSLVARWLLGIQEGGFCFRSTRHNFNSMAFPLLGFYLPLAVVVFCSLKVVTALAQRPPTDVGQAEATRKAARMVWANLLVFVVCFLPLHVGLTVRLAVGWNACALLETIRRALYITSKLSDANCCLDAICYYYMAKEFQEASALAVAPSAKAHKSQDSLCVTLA

[8] = target: G-protein coupled receptor 55 (Homo sapiens, UniProt Q9Y2T6); assay: SAR Analysis of Selective Antagonists of GPR55 using an Image-Based Assay - Set 4. [Related pubchem assays (depositor defined):AID2013, AID2026]; type: functional;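 note: antagonism of response to 5 µM lysophosphatidylinositol agonist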
Chain of G-protein coupled receptor 55 (Q9Y2T6 whole entry): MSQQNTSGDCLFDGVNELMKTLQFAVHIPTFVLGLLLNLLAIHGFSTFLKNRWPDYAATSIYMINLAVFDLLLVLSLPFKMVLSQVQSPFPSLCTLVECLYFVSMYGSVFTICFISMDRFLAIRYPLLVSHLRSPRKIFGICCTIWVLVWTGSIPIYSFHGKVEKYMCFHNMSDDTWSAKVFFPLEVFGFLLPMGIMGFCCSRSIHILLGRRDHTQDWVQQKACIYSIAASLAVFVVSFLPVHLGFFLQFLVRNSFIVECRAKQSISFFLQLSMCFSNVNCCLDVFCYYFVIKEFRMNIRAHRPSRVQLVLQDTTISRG

[9] = target: T4, Cannabinoid receptor 1 (Homo sapiens, UniProt P21554); assay: SAR analysis of antagonists of the Cannabinoid Receptor 1 using an Image-Based Assay - Set 4. [Related pubchem assays (depositor defined):AID2013, AID2026]; type: functional
T4 sequence (P21554 whole entry): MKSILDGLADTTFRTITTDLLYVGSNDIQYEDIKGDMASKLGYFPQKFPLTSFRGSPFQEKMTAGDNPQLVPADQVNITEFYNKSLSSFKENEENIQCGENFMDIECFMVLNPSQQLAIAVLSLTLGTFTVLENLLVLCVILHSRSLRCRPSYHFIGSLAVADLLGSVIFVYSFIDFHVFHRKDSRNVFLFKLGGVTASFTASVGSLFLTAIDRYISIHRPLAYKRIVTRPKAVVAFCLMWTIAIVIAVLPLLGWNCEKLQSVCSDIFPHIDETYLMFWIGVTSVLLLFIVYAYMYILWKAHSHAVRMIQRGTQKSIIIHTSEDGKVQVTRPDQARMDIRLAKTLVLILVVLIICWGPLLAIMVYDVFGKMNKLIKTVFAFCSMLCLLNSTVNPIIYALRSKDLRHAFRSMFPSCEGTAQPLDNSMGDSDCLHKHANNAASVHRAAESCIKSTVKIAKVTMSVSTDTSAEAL

[10] = target: T5, Cannabinoid receptor 2 (Homo sapiens, UniProt P34972); assay: SAR analysis of agonists of the Cannabinoid Receptor 2 using an Image-Based Assay - Set 3. [Related pubchem assays (depositor defined):AID2013, AID2026]; type: functional
T5 sequence (P34972 whole entry): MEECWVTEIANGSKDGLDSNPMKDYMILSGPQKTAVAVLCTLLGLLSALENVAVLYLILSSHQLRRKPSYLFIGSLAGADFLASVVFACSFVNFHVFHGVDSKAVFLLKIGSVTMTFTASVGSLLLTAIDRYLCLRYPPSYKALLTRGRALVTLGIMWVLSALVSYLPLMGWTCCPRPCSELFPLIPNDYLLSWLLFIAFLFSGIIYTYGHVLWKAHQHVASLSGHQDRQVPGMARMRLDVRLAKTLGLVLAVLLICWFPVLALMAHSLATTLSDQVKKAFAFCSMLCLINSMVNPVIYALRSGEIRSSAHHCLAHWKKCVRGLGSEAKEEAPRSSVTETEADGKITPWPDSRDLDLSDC

[11] = target: T3, G-protein coupled receptor 35; assay: SAR analysis of Agonists of the GPR35 Receptor using an Image-Based Assay - Set 4. [Related pubchem assays (depositor defined):AID2013, AID2026]; type: functional
[12] = target: T5, Cannabinoid receptor 2; assay: SAR analysis of antagonists of the Cannabinoid Receptor 2 using an Image-Based Assay - Set 3. [Related pubchem assays (depositor defined):AID2013, AID2026]; type: functional
[13] = target: T4, Cannabinoid receptor 1; assay: SAR analysis of agonists of the Cannabinoid Receptor 1 using an Image-Based Assay - Set 4. [Related pubchem assays (depositor defined):AID2013, AID2026]; type: functional
[14] = system: Vibrio harveyi; assay: inhibitors of AI-2 quorum sensing in V. harveyi, dose response, LuxS, LuxPQ, dry powder, set 2 (AID 493072); type: functional, organism-based

CC(=O)NC(=S)NNC(=O)c1ccc(Br)cc1
AC50 [1]: > 52 µM (inactive)
AC50 [2]: 46.3 µM (active)
IC50 [3]: 14.9 µM (active)
AC50 [4]: > 52 µM (inactive)
IC50 [5]: 17 µM (active)
IC50 [6]: > 20 µM (inactive)

O=C(Nc1ccc(S(=O)(=O)Nc2nccs2)cc1)c1cc(-c2cccs2)nc2ccccc12
IC50 [7]: > 32 µM (inactive)
IC50 [8]: 29 µM (inactive)
IC50 [9]: 4.09 µM (active)
EC50 [10]: > 32 µM (inactive)
EC50 [11]: > 32 µM (inactive)
IC50 [12]: > 32 µM (inactive)
EC50 [13]: > 32 µM (inactive)

Cc1cccc(NC(=O)c2ccc(Oc3ccccc3)cc2)n1
AC50 [14]: 15.2 µM (active)
